In ChEMBL document CHEMBL4406823 (Eur J Med Chem, 2019):
Calls of active or inactive are those of the source. The calls are words filed in the database; no cut-off is given here.

Key:
Tubulin (Bos taurus) [1] = molecular target: T1, Tubulin (Bos taurus) (UniProt Q6B856+Q862L2+Q862F3); test: Displacement of [3H]-colchicine from bovine brain tubulin at 5 uM incubated for 1 hr by relative to control
MCF7 = test: cells; settings: Homo sapiens, MCF7, 72 h
Description: Antiproliferative activity against human MCF7 cells assessed as inhibition of cell proliferation incubated for 72 hrs by MTT assay

MDA-MB-231 [2] = test: Antiproliferative activity against human MDA-MB-231 cells assessed as inhibition of cell proliferation incubated for 72 hrs by MTT assay; format: functional, cell-based; settings: MDA-MB-231, 72 h
HL-60 = test: Antiproliferative activity against human HL60 cells assessed as inhibition of cell proliferation incubated for 72 hrs by MTT assay; format: functional, cell-based; settings: HL-60, 72 h
SEM cells = test: Antiproliferative activity against human SEM cells assessed as inhibition of cell proliferation incubated for 72 hrs by MTT assay; format: functional, cell-based
HeLa = test: cells; settings: Homo sapiens, 72 h
Description: Antiproliferative activity against human HeLa cells assessed as inhibition of cell proliferation incubated for 72 hrs by MTT assay

HT-29 = test: cells; settings: Homo sapiens, HT-29, 72 h
Description: Antiproliferative activity against human HT-29 cells assessed as inhibition of cell proliferation incubated for 72 hrs by MTT assay

Tubulin = Tubulin (Bos taurus, UniProt Q6B856+Q862L2+Q862F3); test: Inhibition of bovine brain tubulin assembly using GTP as substrate incubated for 20 mins by spectrophotometric method
Tubulin (Bos taurus) [3] = molecular target: T1, Tubulin (Bos taurus); test: Displacement of [3H]-colchicine from bovine brain tubulin at 0.5 uM incubated for 1 hr by relative to control
MDA-MB-231 [4] = test: Induction of cell cycle arrest in human MDA-MB-231 cells assessed as effect on cyclin B protein expression at 50 to 100 nM incubated for 24 to 48 hrs by western blot analysis; format: functional, cell-based
[5] = Cytotoxicity against human quiescent PBL assessed as reduction in cell viability incubated for 72 hrs by MTT assay; format: cell-based
MDA-MB-231 [6] = test: Induction of mitochondrial membrane depolarization in human MDA-MB-231 cells at 50 to 100 nM incubated for 24 to 48 hrs by JC1 staining based flow cytometric method; format: functional, cell-based
[7] = Cytotoxicity against PHA-stimulated human PBL assessed as reduction in cell viability incubated for 72 hrs by MTT assay; format: cell-based
MDA-MB-231 [8] = test: Induction of apoptosis in human MDA-MB-231 cells assessed as reduction in Mcl1 protein expression at 50 to 100 nM incubated for 48 hrs by Western blot analysis; format: functional, cell-based
[9] = Antiproliferative activity against human CEM/VBL100 cells overexpressing P-gp assessed as inhibition of cell growth incubated for 72 hrs by MTT assay; format: functional; settings: CEM/VBL100, 72 h
MDA-MB-231 [10] = test: Induction of apoptosis in human MDA-MB-231 cells at 50 nM incubated for 24 to 48 hrs by annexin V-FITC/propidium iodide staining-based flow cytometry analysis; format: functional, cell-based
MDA-MB-231 [11] = test: Induction of cell cycle arrest in human MDA-MB-231 cells assessed as reduction in accumulation of cells at G1 phase at 10 to 100 nM incubated for 24 hrs by PI staining based flow cytometric analysis; format: functional
MDA-MB-231 [12] = test: Induction of cell cycle arrest in human MDA-MB-231 cells assessed as increase in accumulation of cells at G2/M phase at 100 nM incubated for 24 hrs by PI staining based flow cytometric analysis; format: functional
MDA-MB-231 [13] = test: Induction of cell cycle arrest in human MDA-MB-231 cells assessed as increase in p21 protein expression level at 50 to 100 nM incubated for 24 to 48 hrs by western blot analysis; format: functional, cell-based
MDA-MB-231 [14] = test: Induction of cell cycle arrest in human MDA-MB-231 cells assessed as reduction in accumulation of cells at S phase at 10 to 100 nM incubated for 24 hrs by PI staining based flow cytometric analysis; format: functional
MDA-MB-231 [15] = test: Induction of ROS generation in human MDA-MB-231 cells at 50 to 100 nM incubated for 24 to 48 hrs by H2-DCFDA staining based flow cytometric method; format: functional, cell-based
MDA-MB-231 [16] = test: Induction of apoptosis in human MDA-MB-231 cells assessed as activation of PARP cleavage at 50 to 100 nM incubated for 48 hrs by Western blot analysis; format: functional, cell-based
[17] = Cytotoxicity against human astrocytes assessed as reduction in cell viability incubated for 72 hrs by MTT assay; format: cell-based, Astrocyte
MDA-MB-231 [18] = test: Induction of apoptosis in human MDA-MB-231 cells assessed as reduction in XIAP protein expression at 50 to 100 nM incubated for 24 to 48 hrs by Western blot analysis; format: functional, cell-based
CCRF-CEM = test: Antiproliferative activity against human CEM cells assessed as inhibition of cell growth incubated for 72 hrs by MTT assay; format: functional
E0771 = test: Antitumour activity against mouse E0771 cells allografted in C57BL/6 mouse assessed as reduction in tumor mass at 30 mg/kg, ip administrated every other day by caliper method; format: functional, organism-based

CCSc1ccc(-c2c[nH]nc2-c2cc(OC)c(OC)c(OC)c2)cc1
inhibition (Tubulin (Bos taurus) [1]): 85%
IC50 (MCF7): 492 nM
IC50 (MDA-MB-231 [2]): 31.4 nM
IC50 (HL-60): 29.7 nM
IC50 (SEM cells): 13.9 nM
IC50 (HeLa): 12.5 nM
IC50 (HT-29): 5.4 nM
IC50 (Tubulin): 480 nM

COc1ccc(-c2c[nH]nc2-c2cc(OC)c(OC)c(OC)c2)cc1
inhibition (Tubulin (Bos taurus) [1]): 86%
IC50 (MCF7): 16.6 nM
IC50 (MDA-MB-231 [2]): 8.6 nM
IC50 (HL-60): 4.4 nM
IC50 (SEM cells): 1 nM
IC50 (HeLa): 6 nM
IC50 (HT-29): 10.5 nM
IC50 (Tubulin): 370 nM

CCOc1ccc(-c2c[nH]nc2-c2cc(OC)c(OC)c(OC)c2)cc1
inhibition (Tubulin (Bos taurus) [3]): 69%
Activity (MDA-MB-231 [4]): inactive
GI50 at 72 h [5]: 8700 nM
Activity (MDA-MB-231 [6]): Active
GI50 at 72 h [7]: > 10000 nM
Activity (MDA-MB-231 [8]): Active
inhibition (Tubulin (Bos taurus) [1]): 95%
GI50 [9]: 1.9 nM
Activity (MDA-MB-231 [10]): Active
IC50 (MCF7): 1.5 nM
Activity (MDA-MB-231 [11]): Active
Activity (MDA-MB-231 [12]): Active
Activity (MDA-MB-231 [13]): Active
IC50 (MDA-MB-231 [2]): 4.5 nM
IC50 (HL-60): 3.2 nM
Activity (MDA-MB-231 [14]): Active
IC50 (SEM cells): 0.2 nM
IC50 (HeLa): 0.05 nM
Activity (MDA-MB-231 [15]): Active
Activity (MDA-MB-231 [16]): Active
GI50 at 72 h [17]: > 10000 nM
IC50 (HT-29): 0.3 nM
Activity (MDA-MB-231 [18]): Active
GI50 (CCRF-CEM): 0.4 nM
IC50 (Tubulin): 360 nM

COc1cc(-c2n[nH]cc2-c2ccc(C)c(C)c2)cc(OC)c1OC
inhibition (Tubulin (Bos taurus) [1]): 85%
IC50 (MCF7): 769 nM
IC50 (MDA-MB-231 [2]): 2610 nM
IC50 (HL-60): 51.3 nM
IC50 (SEM cells): 28.5 nM
IC50 (HeLa): 35.9 nM
IC50 (HT-29): 68.4 nM
IC50 (Tubulin): 610 nM

CCCc1ccc(-c2c[nH]nc2-c2cc(OC)c(OC)c(OC)c2)cc1
IC50 (MCF7): 2790 nM
IC50 (MDA-MB-231 [2]): 1550 nM
IC50 (HL-60): 553 nM
IC50 (SEM cells): 406 nM
IC50 (HeLa): 361 nM
IC50 (HT-29): 541 nM

COc1ccc(/C=C\c2cc(OC)c(OC)c(OC)c2)cc1OP(=O)(O)O
inhibition (E0771): Active

COc1cc(-c2n[nH]cc2-c2ccc(OC(F)(F)F)cc2)cc(OC)c1OC
IC50 (MCF7): > 10000 nM
IC50 (MDA-MB-231 [2]): 5740 nM
IC50 (HL-60): 1750 nM
IC50 (SEM cells): 2470 nM
IC50 (HeLa): 3380 nM
IC50 (HT-29): 2420 nM

COc1ccc(-c2c[nH]nc2-c2cc(OC)c(OC)c(OC)c2)cc1F
inhibition (Tubulin (Bos taurus) [3]): 55%
inhibition (Tubulin (Bos taurus) [1]): 93%
IC50 (MCF7): 805 nM
IC50 (MDA-MB-231 [2]): 327 nM
IC50 (HL-60): 5.1 nM
IC50 (SEM cells): 2.7 nM
IC50 (HeLa): 7.3 nM
IC50 (HT-29): 15.8 nM
IC50 (Tubulin): 420 nM

COc1cc(-c2n[nH]cc2-c2ccc(C)c(F)c2)cc(OC)c1OC
inhibition (Tubulin (Bos taurus) [3]): 49%
inhibition (Tubulin (Bos taurus) [1]): 91%
IC50 (MCF7): 1700 nM
IC50 (MDA-MB-231 [2]): 481 nM
IC50 (HL-60): 31 nM
IC50 (SEM cells): 23.5 nM
IC50 (HeLa): 26.2 nM
IC50 (HT-29): 67.4 nM
IC50 (Tubulin): 480 nM

COc1cc(-c2c[nH]nc2-c2cc(OC)c(OC)c(OC)c2)ccc1C
IC50 (MCF7): > 10000 nM
IC50 (MDA-MB-231 [2]): 5280 nM
IC50 (HL-60): 160 nM
IC50 (SEM cells): 305 nM
IC50 (HeLa): 287 nM
IC50 (HT-29): 316 nM

COc1cc(-c2n[nH]cc2-c2ccc(C)cc2)cc(OC)c1OC
inhibition (Tubulin (Bos taurus) [1]): 88%
IC50 (MCF7): 127 nM
IC50 (MDA-MB-231 [2]): 10.6 nM
IC50 (HL-60): 11.9 nM
IC50 (SEM cells): 2.6 nM
IC50 (HeLa): 11.1 nM
IC50 (HT-29): 28.2 nM
IC50 (Tubulin): 370 nM

CCc1ccc(-c2c[nH]nc2-c2cc(OC)c(OC)c(OC)c2)cc1
inhibition (Tubulin (Bos taurus) [1]): 85%
IC50 (MCF7): > 10000 nM
IC50 (MDA-MB-231 [2]): 3270 nM
IC50 (HL-60): 23.3 nM
IC50 (SEM cells): 18.7 nM
IC50 (HeLa): 33.5 nM
IC50 (HT-29): 41.3 nM
IC50 (Tubulin): 520 nM
